According to the supplement of paper PMC10307832:

How the values were obtained:
Assay in all cases: relative viability (nuclei count vs DMSO), 5 days (fraction); higher = more cells survive
[1] = compound: CN1CCN(CC1)C2=CC(=C(C=C2)NC3=NC=C4C(=N3)N(C5=CC=CC=C5C(=O)N4C)C)OC [XMD8-85] + COc1cccc2cc(-c3nc([C@H]4CC[C@H](C(=O)O)CC4)n4ncnc(N)c34)[nH]c12 [OSI-027] (partner 0.5 µM)
Summary of the method: (§1)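 Values are medians from duplicate plates. Each reflects relative viability, defined as the nuclei count of treated wells over that of vehicle wells. Lung cancer cell lines in 1536-well plates were pin-tool dosed one day after seeding with one drug alone or with a fixed anchor-drug dose plus five library-drug doses (not always all listed) in √10 steps, then fixed, stained and imaged at 4× after 5 days.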

[2] = compound: CN1CCN(CC1)C2=CC(=C(C=C2)NC3=NC=C4C(=N3)N(C5=CC=CC=C5C(=O)N4C)C)OC [XMD8-85] + C[C@]1(O)C[C@@H](c2nc(-c3ccc4ccc(-c5ccccc5)nc4c3)c3c(N)nccn32)C1 [Linsitinib] (partner 1 µM)
Summary of the method: as §1

[3] = compound: CN1CCN(CC1)C2=CC(=C(C=C2)NC3=NC=C4C(=N3)N(C5=CC=CC=C5C(=O)N4C)C)OC [XMD8-85] + N=C(N)NC(=N)NCCc1ccccc1 [Phenformin] (partner 250 µM)
Summary of the method: as §1

[4] = compound: O=C(O)C(Cc1ccccc1[N+](=O)[O-])=NNc1nc(-c2ccc(Cl)c(Cl)c2)cs1 (mixture of isomers) [4EGI-1] + CCNC(=O)c1noc(-c2cc(C(C)C)c(O)cc2O)c1-c1ccc(CN2CCOCC2)cc1 [Luminespib] (partner 0.01 µM)
Summary of the method: as §1

Cell Line	relative viability ([1]; first compound 0.08 µM)	relative viability ([1]; first compound 0.253 µM)	relative viability ([1]; first compound 0.8 µM)	relative viability ([1]; first compound 2.53 µM)	relative viability ([1]; first compound 8 µM)	relative viability ([2]; first compound 0.08 µM)	relative viability ([2]; first compound 0.253 µM)	relative viability ([2]; first compound 0.8 µM)	relative viability ([2]; first compound 2.53 µM)	relative viability ([2]; first compound 8 µM)	relative viability ([3]; first compound 0.08 µM)	relative viability ([3]; first compound 0.253 µM)	relative viability ([3]; first compound 0.8 µM)	relative viability ([3]; first compound 2.53 µM)	relative viability ([3]; first compound 8 µM)	relative viability ([4]; first compound 0.5 µM)	relative viability ([4]; first compound 1.581 µM)	relative viability ([4]; first compound 5 µM)	relative viability ([4]; first compound 15.81 µM)	relative viability ([4]; first compound 50 µM)
NCI-H1915	0.622	0.648	0.651	0.672	0.507	1.15	1.15	1.08	1.16	0.999	0.359	0.349	0.377	0.354	0.348	0.838	0.606	0.774	0.572	0.222
LXF-289	0.758	0.915	0.852	0.936	0.579	0.916	0.927	0.964	1.01	0.883	0.524	0.542	0.525	0.553		0.745	0.62	0.745	0.644	0.407
LK-2	0.167	0.196	0.185	0.192	0.162	0.524	0.52	0.498	0.365	0.445		0.279	0.377	0.374	0.213	0.192		0.269	0.206	0.162
H3255	0.599	0.597	0.611	0.603	0.469	0.994	0.872	0.955	0.946	0.629	0.401	0.373	0.339	0.726		1.07	0.674	0.991	0.621	0.733
NCI-H2087	0.612	0.586	0.582	0.686	0.552	0.929	1.01	1.09	1.06	0.7	0.495	0.441	0.562	0.396	0.389	0.191	0.139	0.198	0.206	0.135
EMC-BAC-2	0.358	0.385	0.368	0.404	0.313	0.851	0.803	0.793	0.797	0.813	0.475	0.518		0.517	0.429	1.25	1.01	1.16	1.15	1.06
NCI-H2126	0.603	0.696	0.739	0.855	0.624	0.69		0.766	0.726	0.681	0.524	0.528	0.525	0.543	0.455	0.993		0.96	0.855	0.678
NCI-H441	0.522	0.65	0.654	0.699	0.68	0.473	0.683	0.647	0.5	0.388	0.954	0.689	0.81	1.12	0.571	0.375	0.315	0.294	0.306	0.292
NCI-H520	0.245	0.257	0.232	0.257	0.195	0.86	0.914	1.16	0.849	0.67	0.574	0.6	0.557	0.543	0.446	0.231	0.241	0.184	0.256	0.205
HCC-44	0.51	0.55	0.46	0.456	0.3	0.714	0.749	0.642	0.499	0.346	0.241	0.267	0.184	0.205	0.108	1.22		0.979	0.764	0.23
BEN	0.439	0.344	0.274	0.264	0.307	0.692	0.923	0.802	0.683	0.584	0.275	0.266	0.267	0.306	0.258	0.371	0.332	0.318	0.331	0.152
HARA	0.467	0.574	0.523	0.478	0.229	1.06	0.933	0.945	0.668	0.243	0.455	0.515	0.427	0.42	0.26	0.954	0.958	0.968	0.645	0.0683
NCI-H2085	0.712	0.969	0.697	0.64	0.474	0.585	0.943	0.935	0.885	0.674	0.805	0.734	0.752	0.626	0.516	0.461	0.452	0.468	0.396	0.355
NCI-H838	0.386	0.463	0.343	0.346	0.339	0.979	0.958	1.2	1	0.507	0.528	0.553	0.604	0.617	0.283	0.335		0.226	0.229	0.144
NCI-H647	0.568	0.681	0.667	0.602	0.685	1.29	1.35	1.55	0.862	0.634	0.258	0.522	0.528	0.465	0.307	0.227		0.149	0.137	0.141
NCI-H1651	0.752	0.695	0.676	0.647	0.638	0.957	0.909	0.945	1.08	0.659	0.349	0.312	0.265	0.366	0.298	0.975	0.658	1.01	0.933	0.924
NCI-H322M	0.506		0.571	0.504	0.37	0.853	0.986	0.864	0.825	0.933	0.74		0.749	0.819	0.479	1		0.855	0.727	0.321

Cell Line	relative viability ([1]; first compound 0.08 µM)	relative viability ([1]; first compound 0.253 µM)	relative viability ([1]; first compound 0.8 µM)	relative viability ([1]; first compound 2.53 µM)	relative viability ([1]; first compound 8 µM)	relative viability ([2]; first compound 0.08 µM)	relative viability ([2]; first compound 0.253 µM)	relative viability ([2]; first compound 0.8 µM)	relative viability ([2]; first compound 2.53 µM)	relative viability ([2]; first compound 8 µM)	relative viability ([3]; first compound 0.08 µM)	relative viability ([3]; first compound 0.253 µM)	relative viability ([3]; first compound 0.8 µM)	relative viability ([3]; first compound 2.53 µM)	relative viability ([3]; first compound 8 µM)	relative viability ([4]; first compound 0.5 µM)	relative viability ([4]; first compound 1.581 µM)	relative viability ([4]; first compound 5 µM)	relative viability ([4]; first compound 15.81 µM)	relative viability ([4]; first compound 50 µM)
LU99A	0.264	0.31	0.306	0.33	0.258	0.451	0.566	0.545	0.531	0.459	0.816	0.881	0.858	0.936	0.701	0.246	0.271	0.308	0.228	0.205
PC-14	0.835	0.971	0.776		0.373	1.06	0.849	0.914	0.843	0.86	0.524	0.66	0.575	0.611	0.193	0.466		0.195	0.155	0.155
SK-MES-1	0.533	0.657	0.608	0.525	0.457	1.09	0.942	0.95	1	0.964	0.699	0.624	0.645	0.643	0.427	0.705	0.686	0.831	0.669	0.188
NCI-H358	0.859	0.848	0.887	0.92	0.756	0.756	0.832		0.643	0.442	0.301	0.314	0.312	0.385	0.167	0.339	0.353	0.293	0.224	0.153
NCI-H2347	0.447	0.382	0.421	0.578	0.454	0.91	0.923	0.808	1.04	0.796	0.357	0.382	0.388	0.393		0.499		0.438	0.426	0.411
NCI-H1395	0.754	0.64	0.667	0.664	0.489	0.792	1.09	1.35	1.01	1.08	0.483	0.421	0.447	0.414	0.409	0.717	0.436	0.766	0.789	0.496
SK-LU-1	0.287	0.383		0.365	0.297	0.947	1.11	1.12	1.07	0.91	0.382	0.59	0.653	0.68	0.467	0.191	0.208	0.208	0.201	0.199
NCI-H650	0.564	0.527	0.467	0.492	0.338	0.925	0.74	0.811	0.826	0.371		0.44	0.439	0.436	0.306	0.825		0.878	0.646	0.784
NCI-H1437	0.862	0.876	0.902	0.852	0.595	0.902	0.944	1.09	0.92	0.413		0.299	0.338	0.329	0.268	1.19	1.05	1.15	0.862	0.457
NCI-H596	0.69	0.918	0.773	0.795		0.956	1.12	1.08	0.961	0.628	0.571	0.749	0.636	0.709	0.8	1.02	0.955	1.03	1.07	0.508
NCI-H661	0.636	0.709	0.775	0.806	0.515	0.523	0.518	0.523	0.579	0.448	0.292	0.287	0.278	0.276	0.287	0.883	0.76	0.798	0.606	0.505
PC-3 [JPC-3]	0.769	0.754	0.698	0.814	0.71	0.958	0.994	1.02	1.09		0.431	0.446	0.467	0.537	0.514	0.829	0.717	0.718		0.543
RERF-LC-KJ	0.684	0.504	0.645	0.577	0.461	0.826	0.903	0.881	0.804	0.883	0.46	0.445	0.406	0.379	0.326	1.16		1.17	0.994	0.281
NCI-H1993	0.516	0.454	0.636	0.548	0.552	0.814	0.669	0.812	0.718	0.704	0.565	0.64	0.512	0.436	0.495	1.03	0.786	0.801	0.637	0.496
A-427	0.466	0.573	0.482	0.52	0.337	1.24	1.18	1.11	1.16	1.02	0.278	0.268	0.346	0.335	0.208	1.04	0.658	1.01	0.793	0.315
ABC-1	0.473	0.296	0.546	0.526	0.41	0.825	0.777	0.755	0.681	0.406	0.221	0.245	0.248	0.234	0.229	0.83	0.326	0.792	0.402	0.201
